From ChEMBL document CHEMBL2375335, “Discovery of a novel series of non-nucleoside thumb pocket 2 HCV NS5B polymerase inhibitors” (Bioorg Med Chem Lett, 2013)
Blank lines part the entries; values can stand above or below the molecule they belong to. The source made the active and inactive calls. The calls are words filed in the database; no cut-off is given here.

Key:
[1] = Inhibition of HCV genotype 1b isolate BK NS5B Cdelta21 RNA dependent RNA polymerase using [3H]UTP as substrate incubated for 25 mins prior to substrate addition measured after 120 mins by scintillation proximity assay; parameters: species or system Hepatitis C virus (isolate BK)
Cytochrome P450 3A4 = Cytochrome P450 3A4 (Homo sapiens, UniProt P08684); test: Inhibition of CYP3A4 (unknown origin); assay type: ADME
Cytochrome P450 2C19 = Cytochrome P450 2C19 (Homo sapiens, UniProt P33261); test: Inhibition of CYP2C19 (unknown origin); assay type: ADME
[2] = Inhibition of HCV genotype 1b isolate BK NS5B Cdelta21 RNA dependent RNA polymerase L419M mutant using [3H]UTP as substrate incubated for 25 mins prior to substrate addition measured after 120 mins by scintillation proximity assay; parameters: species or system Hepatitis C virus (isolate BK)
Hepatitis C virus = test: Antiviral activity against HCV genotype 1b infected in HuH7 cells assessed as inhibition of viral replication after 48 hrs by RT-PCR analysis; assay type: functional, organism-based; settings: Hepacivirus hominis, Huh-7
[3] = Inhibition of calf thymus RNA polymerase 2; parameters: species or system Bos taurus
[4] = Permeability from apical to basal side of human Caco2 cells at pH 7.4; assay type: ADME, cell-based; settings: Caco-2, pH 7.4, read-out: permeability
[5] = tested on: Hepatitis C virus (isolate BK); test: Ratio of IC50 for HCV genotype 1b isolate BK NS5B Cdelta21 RNA dependent RNA polymerase L419M mutant to IC50 for HCV genotype 1b isolate BK wild type NS5B Cdelta21 RNA dependent RNA polymerase
[6] = target: RNA-directed RNA polymerase (Hepacivirus hominis, UniProt O39930, M423T); test: Inhibition of HCV genotype 1b isolate BK NS5B Cdelta21 RNA dependent RNA polymerase M423T mutant using [3H]UTP as substrate incubated for 25 mins prior to substrate addition measured after 120 mins by scintillation proximity assay; parameters: species or system Hepatitis C virus (isolate BK)
Cytochrome P450 1A2 = target: T1, Cytochrome P450 1A2 (Homo sapiens, UniProt P05177); test: Inhibition of CYP1A2 (unknown origin); assay type: ADME
T1 sequence (P05177 whole entry): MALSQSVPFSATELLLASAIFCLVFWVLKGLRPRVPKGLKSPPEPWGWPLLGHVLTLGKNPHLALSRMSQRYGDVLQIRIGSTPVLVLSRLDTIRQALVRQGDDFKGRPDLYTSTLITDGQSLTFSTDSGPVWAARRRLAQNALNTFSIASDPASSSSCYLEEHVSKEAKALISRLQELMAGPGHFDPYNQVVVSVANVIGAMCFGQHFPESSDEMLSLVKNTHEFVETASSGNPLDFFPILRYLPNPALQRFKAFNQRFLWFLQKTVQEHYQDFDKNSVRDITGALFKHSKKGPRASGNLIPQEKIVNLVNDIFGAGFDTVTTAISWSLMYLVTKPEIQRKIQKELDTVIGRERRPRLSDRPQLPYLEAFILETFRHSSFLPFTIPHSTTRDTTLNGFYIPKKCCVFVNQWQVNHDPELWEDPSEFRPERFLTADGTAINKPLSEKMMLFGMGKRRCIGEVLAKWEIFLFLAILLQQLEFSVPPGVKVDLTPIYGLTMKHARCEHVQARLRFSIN

[7] = Half life in human liver microsomes at 10 uM; assay type: ADME, Microsome
[8] = Solubility of the compound in buffer after 24 hrs at pH 7.2 by shake flask method; assay type: physicochemical
Cytochrome P450 2D6 = Cytochrome P450 2D6 (Homo sapiens, UniProt P10635); test: Inhibition of CYP2D6 (unknown origin); assay type: ADME
Cytochrome P450 2C9 = Cytochrome P450 2C9 (Homo sapiens, UniProt P11712); test: Inhibition of CYP2C9 (unknown origin); assay type: ADME
[9] = target: RNA-directed RNA polymerase (Hepacivirus hominis, UniProt O39930, M414T); test: Inhibition of HCV genotype 1b isolate BK NS5B Cdelta21 RNA dependent RNA polymerase M414T mutant using [3H]UTP as substrate incubated for 25 mins prior to substrate addition measured after 120 mins by scintillation proximity assay; parameters: species or system Hepatitis C virus (isolate BK)
[10] = target: RNA-directed RNA polymerase (Hepacivirus hominis, UniProt O39930, P495S); test: Inhibition of HCV genotype 1b isolate BK NS5B Cdelta21 RNA dependent RNA polymerase P495S mutant using [3H]UTP as substrate incubated for 25 mins prior to substrate addition measured after 120 mins by scintillation proximity assay; parameters: species or system Hepatitis C virus (isolate BK)
RNA-directed RNA polymerase (Hepacivirus hominis, UniProt O39930, P495S), sequence (O39930 entry or part of it P495S): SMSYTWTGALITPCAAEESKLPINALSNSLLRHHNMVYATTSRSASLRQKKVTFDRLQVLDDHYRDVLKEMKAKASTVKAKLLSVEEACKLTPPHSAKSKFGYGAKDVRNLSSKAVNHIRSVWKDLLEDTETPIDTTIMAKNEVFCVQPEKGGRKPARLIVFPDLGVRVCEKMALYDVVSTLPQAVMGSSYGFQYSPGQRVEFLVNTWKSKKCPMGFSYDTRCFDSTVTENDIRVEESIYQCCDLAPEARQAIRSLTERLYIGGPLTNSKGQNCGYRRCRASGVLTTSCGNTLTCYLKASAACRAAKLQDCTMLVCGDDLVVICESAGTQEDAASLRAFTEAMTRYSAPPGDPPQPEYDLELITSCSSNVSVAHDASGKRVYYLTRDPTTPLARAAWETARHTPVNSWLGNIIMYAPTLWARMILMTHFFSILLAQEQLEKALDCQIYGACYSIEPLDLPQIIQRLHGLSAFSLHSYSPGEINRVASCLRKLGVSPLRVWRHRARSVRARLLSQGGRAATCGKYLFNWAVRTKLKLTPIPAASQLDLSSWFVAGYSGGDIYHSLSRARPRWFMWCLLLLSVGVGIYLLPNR

Cytochrome P450 3A4, sequence (P08684 whole entry): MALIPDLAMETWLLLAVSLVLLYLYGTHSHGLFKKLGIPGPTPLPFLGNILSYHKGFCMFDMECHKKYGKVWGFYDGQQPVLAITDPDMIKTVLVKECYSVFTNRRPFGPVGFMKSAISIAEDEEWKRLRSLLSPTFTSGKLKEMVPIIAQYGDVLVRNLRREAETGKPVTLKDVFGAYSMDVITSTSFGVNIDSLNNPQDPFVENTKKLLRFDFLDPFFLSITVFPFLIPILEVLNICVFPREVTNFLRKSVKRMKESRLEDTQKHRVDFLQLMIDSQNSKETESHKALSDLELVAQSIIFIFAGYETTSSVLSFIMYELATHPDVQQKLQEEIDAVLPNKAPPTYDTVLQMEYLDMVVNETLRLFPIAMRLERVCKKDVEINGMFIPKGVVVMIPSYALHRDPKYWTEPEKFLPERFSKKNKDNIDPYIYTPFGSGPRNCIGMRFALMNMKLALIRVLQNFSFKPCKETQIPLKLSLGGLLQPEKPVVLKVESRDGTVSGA
Cytochrome P450 2C9, sequence (P11712 whole entry): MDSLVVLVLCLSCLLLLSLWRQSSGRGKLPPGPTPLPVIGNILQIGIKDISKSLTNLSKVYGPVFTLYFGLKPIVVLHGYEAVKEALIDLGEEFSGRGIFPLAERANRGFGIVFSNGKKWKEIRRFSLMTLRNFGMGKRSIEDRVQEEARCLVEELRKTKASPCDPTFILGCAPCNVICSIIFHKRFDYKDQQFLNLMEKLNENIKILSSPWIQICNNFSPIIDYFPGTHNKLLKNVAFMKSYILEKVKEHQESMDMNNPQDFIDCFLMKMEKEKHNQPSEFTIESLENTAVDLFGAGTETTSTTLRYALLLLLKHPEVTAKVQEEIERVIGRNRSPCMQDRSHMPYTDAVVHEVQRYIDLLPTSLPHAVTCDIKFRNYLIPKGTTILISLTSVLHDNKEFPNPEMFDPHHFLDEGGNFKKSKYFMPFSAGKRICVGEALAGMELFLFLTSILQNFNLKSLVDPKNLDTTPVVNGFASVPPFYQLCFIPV
RNA-directed RNA polymerase (Hepacivirus hominis, UniProt O39930, M423T), sequence (O39930 entry or part of it M423T): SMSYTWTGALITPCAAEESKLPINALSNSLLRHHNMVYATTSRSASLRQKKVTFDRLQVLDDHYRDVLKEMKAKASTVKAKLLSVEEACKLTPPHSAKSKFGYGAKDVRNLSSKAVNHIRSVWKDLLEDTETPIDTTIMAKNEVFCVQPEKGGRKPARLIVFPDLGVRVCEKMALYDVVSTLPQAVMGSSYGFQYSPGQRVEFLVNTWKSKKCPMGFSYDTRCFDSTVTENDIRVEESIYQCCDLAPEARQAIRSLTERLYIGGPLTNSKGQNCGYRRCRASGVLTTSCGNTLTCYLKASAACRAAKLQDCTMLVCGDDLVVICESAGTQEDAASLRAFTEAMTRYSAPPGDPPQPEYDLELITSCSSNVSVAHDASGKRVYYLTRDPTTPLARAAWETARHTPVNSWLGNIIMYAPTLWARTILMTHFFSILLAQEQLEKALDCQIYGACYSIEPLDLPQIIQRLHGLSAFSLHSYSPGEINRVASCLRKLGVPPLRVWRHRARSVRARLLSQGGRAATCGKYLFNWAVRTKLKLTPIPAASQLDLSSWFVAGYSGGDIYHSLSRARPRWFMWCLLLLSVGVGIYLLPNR
Cytochrome P450 2C19, sequence (P33261 whole entry): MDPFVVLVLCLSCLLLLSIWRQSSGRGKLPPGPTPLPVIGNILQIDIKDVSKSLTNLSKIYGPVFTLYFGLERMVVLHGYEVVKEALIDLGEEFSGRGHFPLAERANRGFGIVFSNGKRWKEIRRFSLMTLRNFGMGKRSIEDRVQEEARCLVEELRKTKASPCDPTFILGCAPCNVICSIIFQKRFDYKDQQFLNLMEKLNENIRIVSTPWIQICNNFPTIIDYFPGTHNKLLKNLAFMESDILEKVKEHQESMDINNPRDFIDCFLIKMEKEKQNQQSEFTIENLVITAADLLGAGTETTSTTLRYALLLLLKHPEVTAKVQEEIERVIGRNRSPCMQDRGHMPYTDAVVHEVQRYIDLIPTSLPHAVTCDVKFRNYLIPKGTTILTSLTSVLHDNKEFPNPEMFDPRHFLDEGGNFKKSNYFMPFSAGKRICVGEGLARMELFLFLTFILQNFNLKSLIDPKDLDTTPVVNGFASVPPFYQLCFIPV
Cytochrome P450 2D6, sequence (P10635 whole entry): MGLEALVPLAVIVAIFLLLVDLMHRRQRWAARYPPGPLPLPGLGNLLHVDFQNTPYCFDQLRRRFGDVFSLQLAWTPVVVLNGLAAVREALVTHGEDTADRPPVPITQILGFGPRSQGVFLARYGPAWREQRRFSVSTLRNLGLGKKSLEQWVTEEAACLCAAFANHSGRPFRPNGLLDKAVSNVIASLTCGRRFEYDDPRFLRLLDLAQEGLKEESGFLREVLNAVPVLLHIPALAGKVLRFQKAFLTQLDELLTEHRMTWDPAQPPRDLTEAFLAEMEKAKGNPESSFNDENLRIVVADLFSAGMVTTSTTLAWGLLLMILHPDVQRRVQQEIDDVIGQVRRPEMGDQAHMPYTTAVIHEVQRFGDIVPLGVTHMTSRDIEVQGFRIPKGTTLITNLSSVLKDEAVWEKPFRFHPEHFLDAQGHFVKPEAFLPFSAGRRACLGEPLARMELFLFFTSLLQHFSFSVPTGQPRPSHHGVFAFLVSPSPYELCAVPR
RNA-directed RNA polymerase (Hepacivirus hominis, UniProt O39930, M414T), sequence (O39930 entry or part of it M414T): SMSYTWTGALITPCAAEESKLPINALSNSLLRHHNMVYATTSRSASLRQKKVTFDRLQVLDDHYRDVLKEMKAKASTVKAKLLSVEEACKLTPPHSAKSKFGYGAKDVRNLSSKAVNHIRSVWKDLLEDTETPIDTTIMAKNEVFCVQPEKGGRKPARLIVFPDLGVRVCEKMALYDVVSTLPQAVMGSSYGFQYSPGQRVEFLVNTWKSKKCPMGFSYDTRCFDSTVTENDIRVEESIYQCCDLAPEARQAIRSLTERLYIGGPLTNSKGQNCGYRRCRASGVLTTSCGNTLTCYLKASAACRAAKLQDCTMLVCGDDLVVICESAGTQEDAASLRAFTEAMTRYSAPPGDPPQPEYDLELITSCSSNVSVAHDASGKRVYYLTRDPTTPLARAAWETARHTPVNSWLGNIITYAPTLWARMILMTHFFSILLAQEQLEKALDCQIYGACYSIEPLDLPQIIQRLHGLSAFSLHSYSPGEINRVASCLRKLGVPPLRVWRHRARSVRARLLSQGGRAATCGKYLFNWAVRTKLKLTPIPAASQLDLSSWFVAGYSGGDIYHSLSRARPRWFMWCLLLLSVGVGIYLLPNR

- IC50 [1]: 100 µM
Compound: Cc1cc(NS(=O)(=O)c2cc(Cl)c(Cl)cc2Cl)no1

- IC50 [1]: 8.4 µM
Compound: O=C(O)c1cc(Br)ccc1NS(=O)(=O)c1ccc(Cl)c(Cl)c1

- IC50 [1]: 4.6 µM
Compound: O=C(O)c1ccc(Cl)cc1NS(=O)(=O)c1ccc(Br)s1

Compound: Cc1ccc(S(=O)(=O)Nc2ccc(Oc3ccccc3)cc2C(=O)O)cc1
- IC50 (Cytochrome P450 3A4): > 30 µM
- IC50 (Cytochrome P450 2C19): > 30 µM
- IC50 [2]: 1.2 µM
- Activity (Hepatitis C virus): inactive
- IC50 [3]: > 100 µM
- IC50 [1]: 0.086 µM
- Papp A→B [4]: 2.2 ×10⁻⁶ cm/s
- Ratio IC50 [5]: 15
- IC50 [6]: 0.17 µM
- IC50 (Cytochrome P450 1A2): 1.8 µM
- half-life at 10 µM [7]: 11 min
- solubility thermodynamic at 24 h [8]: > 900 µg/mL
- IC50 (Cytochrome P450 2D6): > 30 µM
- IC50 (Cytochrome P450 2C9): 3 µM

Compound: O=C(O)c1cc(Oc2ccccc2)ccc1NS(=O)(=O)c1ccc(Br)cc1F
- IC50 (Cytochrome P450 3A4): 26 µM
- IC50 (Cytochrome P450 2C19): 1.1 µM
- IC50 [2]: 1.8 µM
- Activity (Hepatitis C virus): inactive
- IC50 [9]: 0.052 µM
- IC50 [10]: 0.093 µM
- IC50 [3]: > 100 µM
- IC50 [1]: 0.11 µM
- Papp A→B [4]: < 0.1 ×10⁻⁶ cm/s
- Ratio IC50 [5]: 15
- IC50 [6]: 0.2 µM
- IC50 (Cytochrome P450 1A2): > 30 µM
- half-life at 10 µM [7]: 27 min
- solubility thermodynamic at 24 h [8]: > 900 µg/mL
- IC50 (Cytochrome P450 2D6): > 30 µM
- IC50 (Cytochrome P450 2C9): 1.1 µM

- IC50 [1]: 9 µM
Compound: O=C(O)c1cc(Br)ccc1NS(=O)(=O)c1cc(Cl)c(Cl)cc1Cl

- IC50 [1]: 3.7 µM
Compound: O=C(O)c1cc(-c2ccccc2)ccc1NS(=O)(=O)c1ccc(Br)s1

- IC50 [1]: 26 µM
Compound: O=C(O)c1ccccc1NS(=O)(=O)c1cc(Cl)c(Cl)cc1Cl

- IC50 [1]: 6.8 µM
Compound: O=C(O)c1ccc(Cl)cc1NS(=O)(=O)c1cc(F)c(Br)cc1F

- IC50 [1]: 6.1 µM
Compound: O=C(O)c1cc(Br)ccc1NS(=O)(=O)c1ccc(Br)s1

- IC50 [1]: 4.5 µM
Compound: O=C(O)c1cc(Br)ccc1NS(=O)(=O)c1cc(F)c(Br)cc1F

- IC50 [1]: 0.55 µM
Compound: O=C(O)c1cc(Oc2ccccc2)ccc1NS(=O)(=O)c1ccc(Br)s1

- IC50 [1]: 11 µM
Compound: O=C(O)c1ccc(Cl)cc1NS(=O)(=O)c1cc(Cl)c(Cl)cc1Cl

- IC50 [1]: 0.31 µM
Compound: O=C(O)c1ccc(Oc2ccccc2)cc1NS(=O)(=O)c1ccc(Br)cc1F

- IC50 [1]: 0.61 µM
Compound: O=C(O)c1ccc(Oc2ccccc2)cc1NS(=O)(=O)c1ccc(Br)s1

- IC50 [1]: 6.7 µM
Compound: O=C(O)c1ccc(-c2ccccc2)cc1NS(=O)(=O)c1ccc(Br)s1

- IC50 [1]: 43 µM
Compound: O=C(O)c1cc(Br)ccc1NS(=O)(=O)c1ccccc1

Compound: Cc1ccc(S(=O)(=O)Nc2cc(Oc3ccccc3)ccc2C(=O)O)cc1
- IC50 (Cytochrome P450 3A4): > 30 µM
- IC50 (Cytochrome P450 2C19): 7.9 µM
- IC50 [2]: 1.2 µM
- Activity (Hepatitis C virus): inactive
- IC50 [9]: 0.052 µM
- IC50 [10]: 0.077 µM
- IC50 [3]: > 100 µM
- IC50 [1]: 0.072 µM
- Papp A→B [4]: 2.4 ×10⁻⁶ cm/s
- Ratio IC50 [5]: 15
- IC50 [6]: 0.1 µM
- IC50 (Cytochrome P450 1A2): > 30 µM
- half-life at 10 µM [7]: 17 min
- solubility thermodynamic at 24 h [8]: > 700 µg/mL
- IC50 (Cytochrome P450 2D6): > 30 µM
- IC50 (Cytochrome P450 2C9): 3.1 µM
